# Test results reported in patent US10782295B2, “Cysteine-reactive ligand discovery in proteomes” (THE SCRIPPS RESEARCH INSTITUTE, priority 2013, dated 2020).
# Experiments:
# Test in all cases: competitive isoTOP-ABPP, MDA-MB-231 soluble proteome
# Assay type in all cases: binding
# [1] = target: T1, CCT8 (Homo sapiens, UniProt P50990); conditions: 100 μM LDE, 60 min; peptide IAVYSC*PFDGMITETK
# T1 construct: directly in native proteomes; endogenous in cells; host or cells: MDA-MB-231
# T1 sequence (P50990 1-548): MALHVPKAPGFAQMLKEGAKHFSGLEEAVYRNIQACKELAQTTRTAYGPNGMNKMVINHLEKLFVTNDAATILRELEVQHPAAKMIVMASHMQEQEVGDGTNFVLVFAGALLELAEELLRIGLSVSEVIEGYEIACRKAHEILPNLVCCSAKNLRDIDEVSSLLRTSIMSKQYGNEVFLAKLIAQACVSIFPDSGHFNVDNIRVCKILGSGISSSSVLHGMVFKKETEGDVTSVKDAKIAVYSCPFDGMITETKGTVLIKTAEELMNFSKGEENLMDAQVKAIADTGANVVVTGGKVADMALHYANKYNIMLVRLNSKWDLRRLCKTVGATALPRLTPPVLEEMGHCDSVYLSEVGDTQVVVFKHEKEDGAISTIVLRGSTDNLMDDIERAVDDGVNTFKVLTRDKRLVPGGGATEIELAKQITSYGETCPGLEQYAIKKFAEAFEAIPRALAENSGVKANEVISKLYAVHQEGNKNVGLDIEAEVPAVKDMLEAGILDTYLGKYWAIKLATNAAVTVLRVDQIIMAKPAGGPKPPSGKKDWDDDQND
# Experimental: (§1) Here, we envisioned that isoTOP-ABPP could be advanced to discover and quantify reactions between cysteines in proteomes and any electrophilic compound. In this advanced, ‘competitive’ version of isoTOP-ABPP (FIG. 1a), a proteome is treated with an electrophile (experimental sample) or DMSO (control sample). Both proteomic samples are then labeled with the IA probe and conjugated by CuAAC to light and heavy azide-biotin tags, respectively. The light and heavy samples are then mixed and subjected to our described isoTOP-ABPP protocol for enrichment, identification, and quantification of IA-labeled cysteines^30. Electrophile-modified cysteines are quantified by measuring the MS1 chromatographic peak ratios (R values) for heavy (DMSO-treated) over light (electrophile-treated) samples, with higher R values reflecting greater sensitivity to the electrophile. In this format, competitive isoTOP-ABPP can assay electrophiles against 1000+ cysteines in parallel directly in native proteomes without requiring any chemical modification to the electrophiles themselves.
# (§2) Competitive isoTOP-ABPP experiments were performed in quadruplicate using the soluble proteome of the human breast cancer cell line MDA-MB-231 cell line. Proteomes were treated with 100 μM HNE, 15d-PGJ2, or 2-HD, for 60 minutes, followed by the IA-probe (100 μM, 60 min) A total of ˜1400 cysteine reactivities were quantified across the aggregate data set, with at least 900 cysteine reactivities quantified for each LDE (FIG. 2a) more than 750 of which were quantified for all the three electrophiles.
# (§3) HNE was purchased from EMD biosciences, 15d-PGJ2 was purchased from Cayman Chemicals and 2-HD was purchased from Santa Cruz Biotechnology. Proteome samples were diluted to a 4 mg protein/mL solution in PBS. For each profiling experiment, one aliquot of the proteome sample (0.5 mL) was treated with 100 μM of LDE using 5 μL of a 10 mM stock and the other aliquot was treated with 5 μL of either ethanol (for HNE and 15d-PGJ2) or DMSO (for 2-HD) as control. For the concentration-dependent profiling experiments using HNE, aliquots of the proteomes (0.5 mL each) were treated with 5, 10, 50, 100 and 500 μM of HNE using 5 μL of 0.5, 1.0, 5, 10 and 50 mM of stock solution, respectively. After 60 minutes of treatment at room temperature, both the LDE-treated and control aliquots were passed through a NAP-5 Sephadex column (GE healthcare) to remove any unreacted LDE. The volume of each aliquot was increased to 1 mL with the concentration at 2 mg/mL after this step.
# (§4) Each of the control and LDE-treated proteome samples (˜2 mg protein/mL in 1 mL volume) was treated with 100 μM of IA-probe using 10 μL of a 10 mM stock in DMSO. The labeling reactions were incubated at room temperature for 1 hour. Click chemistry (acetylene-azide cycloaddition) was performed by the addition of 100 μM of either the Heavy-TEV-Tag (for the control sample) or Light-TEV-Tag (for the LDE-treated sample) (20 μL of a 5 mM stock), 1 mM TCEP (fresh 50× stock in water), 100 μM ligand (17× stock in DMSO:t-Butanol 1:4) and 1 mM CuSO4 (50× stock in water). Samples were allowed to react at room temperature for 1 hour. After the click chemistry step, the light and heavy-labeled samples were mixed together and centrifuged (5900×g, 4 min, 4° C.) to pellet the precipitated proteins.
# (§5) The pellets were washed twice in cold MeOH, after which the pellet was solubilized in PBS containing 1.2% SDS via sonication and heating (5 min, 80° C.). Samples were subjected to streptavidin enrichment of probe-labeled proteins, sequential on-bead trypsin and TEV digestion, and liquid chromatography-mass spectrometry (LC-MS) analysis according to the published isoTOP-ABPP protocol^30.
# (§6) IA-probe labeled peptides were identified by SEQUEST2 and DTASelect3, and the quantification of heavy/light ratios (isoTOP-ABPP ratios, R) was performed by an in-house software (CIMAGE) as previously described. […]
# [2] = target: T2, MAPK9 (Homo sapiens, UniProt P45984); conditions: 100 μM LDE, 60 min; peptide TLEEFQDVYLVMELMDANLC*QVIHMELDHER
# T2 construct: directly in native proteomes; endogenous in cells; host or cells: MDA-MB-231
# Experimental: as §1, §2, §3, §4, §5, §6
# [3] = target: T3, PEF1 (Homo sapiens, UniProt Q9UBV8); conditions: 100 μM LDE, 60 min; peptide QALVNC*NWSSFNDETCLMMINMFDK
# T3 construct: directly in native proteomes; endogenous in cells; host or cells: MDA-MB-231
# T3 sequence (Q9UBV8 1-284): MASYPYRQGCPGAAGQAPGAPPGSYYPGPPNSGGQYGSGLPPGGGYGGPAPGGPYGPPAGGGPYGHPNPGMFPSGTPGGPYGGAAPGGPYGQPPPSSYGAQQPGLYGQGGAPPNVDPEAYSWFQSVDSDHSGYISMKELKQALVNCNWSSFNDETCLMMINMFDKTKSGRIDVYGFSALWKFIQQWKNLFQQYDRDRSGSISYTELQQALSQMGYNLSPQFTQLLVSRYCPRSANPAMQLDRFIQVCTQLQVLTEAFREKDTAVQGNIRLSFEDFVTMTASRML
# Experimental: as §1, §2, §3, §4, §5, §6
# [4] = target: T4, TNRC5 (Homo sapiens, UniProt Q9BT09); conditions: 100 μM LDE, 60 min; peptide QC*DVLVEEFEEVIEDWYR
# T4 construct: directly in native proteomes; endogenous in cells; host or cells: MDA-MB-231
# T4 sequence (Q9BT09 31-278): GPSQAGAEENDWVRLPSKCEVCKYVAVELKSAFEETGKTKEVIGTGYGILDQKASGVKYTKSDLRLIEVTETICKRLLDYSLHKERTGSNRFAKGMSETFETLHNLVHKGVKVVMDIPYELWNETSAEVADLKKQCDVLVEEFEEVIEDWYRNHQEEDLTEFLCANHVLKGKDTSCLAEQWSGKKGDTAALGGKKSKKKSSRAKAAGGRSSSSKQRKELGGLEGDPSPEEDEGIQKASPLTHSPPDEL
# Experimental: as §1, §2, §3, §4, §5, §6
# T2 sequence (P45984 whole entry): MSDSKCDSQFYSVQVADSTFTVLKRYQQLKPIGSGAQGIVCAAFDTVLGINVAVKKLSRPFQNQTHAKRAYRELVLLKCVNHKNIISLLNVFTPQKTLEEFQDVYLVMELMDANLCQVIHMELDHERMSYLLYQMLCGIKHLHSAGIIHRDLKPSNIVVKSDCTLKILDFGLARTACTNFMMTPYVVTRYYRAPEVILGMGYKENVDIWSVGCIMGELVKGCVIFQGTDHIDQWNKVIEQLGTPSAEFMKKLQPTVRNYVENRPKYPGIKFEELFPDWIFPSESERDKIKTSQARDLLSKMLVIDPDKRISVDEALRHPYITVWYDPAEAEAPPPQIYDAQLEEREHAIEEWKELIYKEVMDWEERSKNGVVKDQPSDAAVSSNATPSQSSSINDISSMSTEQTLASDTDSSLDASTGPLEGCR
Compound,R value (isoTOP-ABPP ratio heavy/light) for IA-labeled cysteine of CCT8 [1],R value (isoTOP-ABPP ratio heavy/light) for IA-labeled cysteine of MAPK9 [2],R value (isoTOP-ABPP ratio heavy/light) for IA-labeled cysteine of PEF1 [3],R value (isoTOP-ABPP ratio heavy/light) for IA-labeled cysteine of TNRC5 [4]
"CCCCC/C=C/C=C1/C(=O)C=C[C@@H]1C/C=C\CCCC(=O)O [PGJ2, 15-deoxy-Δ12,14-prostaglandin J2]",7.75,1.78,2.9,11.77
"CCCCCC(O)/C=C/C=O (stereo not drawn) [4-HNE, 4-Hydroxynonenal]",1.14,5.08,5.14,1.29
"CCCCCCCCCCCCC/C=C/C=O [2-HD, 2-trans-hexadecenal]",1.06,1.14,1.25,1.06
